The text below walks through data of paper PMC9609098, “Xanthine Oxidase Inhibitory Activity and Chemical Composition of Pistacia chinensis Leaf Essential Oil” (Pharmaceutics, 2022).

Converted amounts (≈) assume the structure as drawn. Like-named read-outs stand apart in the source and are kept apart here.

For assay [1], the target named is T1, xanthine oxidase (Homo sapiens, UniProt P47989). To be noted: cited from earlier work.
Assay [2] concerns the target xanthine oxidase (EC 1.1.3.22) (Homo sapiens, UniProt P47989). Nature of the assay: biochemical. Conditions: for IC50: read-out: IC50 against xanthine oxidase (converted). It is filed as biochemical. The protocol: Xanthine oxidase inhibitory activity of specimens was evaluated by using in vitro spectrophotometric analysis. Both hypoxanthine and xanthine were used as the substrate in the assay, respectively. We added 117 µL of potassium phosphate buffer (50 mM, pH 7.8), 3 µL of specimen solution, and 60 µL of 0.025 unit/mL xanthine oxidase (EC 1.1.3.22) and mixed well in a 96-well microplate, and the mixture was incubated for 10 min at room temperature (25 °C). We added 100 µL of 0.15 mM substrate (hypoxanthine/xanthine) into the well, and the solution was incubated in the dark for 30 min at 37 °C. Then, 20 µL of 1 N HCl was added to stop the reaction. Absorbance at 290 nm of each well was measured using an ELISA (enzyme-linked immunosorbent assay) microplate reader (SPECTROstar Nano, BMG LABTECH, Offenburg, Germany) after incubation. […] All the experiments were performed in triplicate. Inhibition of the xanthine oxidase inhibitory activity was determined by the following formula: Inhibition (%) = [(Acontrol − Acontrol’s blank) − (Asample − Asample’s blank)/(Acontrol − Acontrol’s blank)] × 100. The IC50, half maximal inhibitory concentration, was calculated from the concentration-response curve of the specimen.

In assay [3] the target is T1, xanthine oxidase. To be noted: cited from earlier work. This is another data set of the same source.
The target in assay [4] is T1, xanthine oxidase. Nature of the assay: Enzyme kinetic study (Lineweaver–Burk plot). To be noted: for Inhibition type on xanthine oxidase: both substrates, hypoxanthine and xanthine.
The mark [5] stands for this setting: Hypoxanthine as the substrate, read-out: IC50 xanthine oxidase inhibition (converted).

Chain of xanthine oxidase (EC 1.1.3.22) (P47989 whole entry, species assumed): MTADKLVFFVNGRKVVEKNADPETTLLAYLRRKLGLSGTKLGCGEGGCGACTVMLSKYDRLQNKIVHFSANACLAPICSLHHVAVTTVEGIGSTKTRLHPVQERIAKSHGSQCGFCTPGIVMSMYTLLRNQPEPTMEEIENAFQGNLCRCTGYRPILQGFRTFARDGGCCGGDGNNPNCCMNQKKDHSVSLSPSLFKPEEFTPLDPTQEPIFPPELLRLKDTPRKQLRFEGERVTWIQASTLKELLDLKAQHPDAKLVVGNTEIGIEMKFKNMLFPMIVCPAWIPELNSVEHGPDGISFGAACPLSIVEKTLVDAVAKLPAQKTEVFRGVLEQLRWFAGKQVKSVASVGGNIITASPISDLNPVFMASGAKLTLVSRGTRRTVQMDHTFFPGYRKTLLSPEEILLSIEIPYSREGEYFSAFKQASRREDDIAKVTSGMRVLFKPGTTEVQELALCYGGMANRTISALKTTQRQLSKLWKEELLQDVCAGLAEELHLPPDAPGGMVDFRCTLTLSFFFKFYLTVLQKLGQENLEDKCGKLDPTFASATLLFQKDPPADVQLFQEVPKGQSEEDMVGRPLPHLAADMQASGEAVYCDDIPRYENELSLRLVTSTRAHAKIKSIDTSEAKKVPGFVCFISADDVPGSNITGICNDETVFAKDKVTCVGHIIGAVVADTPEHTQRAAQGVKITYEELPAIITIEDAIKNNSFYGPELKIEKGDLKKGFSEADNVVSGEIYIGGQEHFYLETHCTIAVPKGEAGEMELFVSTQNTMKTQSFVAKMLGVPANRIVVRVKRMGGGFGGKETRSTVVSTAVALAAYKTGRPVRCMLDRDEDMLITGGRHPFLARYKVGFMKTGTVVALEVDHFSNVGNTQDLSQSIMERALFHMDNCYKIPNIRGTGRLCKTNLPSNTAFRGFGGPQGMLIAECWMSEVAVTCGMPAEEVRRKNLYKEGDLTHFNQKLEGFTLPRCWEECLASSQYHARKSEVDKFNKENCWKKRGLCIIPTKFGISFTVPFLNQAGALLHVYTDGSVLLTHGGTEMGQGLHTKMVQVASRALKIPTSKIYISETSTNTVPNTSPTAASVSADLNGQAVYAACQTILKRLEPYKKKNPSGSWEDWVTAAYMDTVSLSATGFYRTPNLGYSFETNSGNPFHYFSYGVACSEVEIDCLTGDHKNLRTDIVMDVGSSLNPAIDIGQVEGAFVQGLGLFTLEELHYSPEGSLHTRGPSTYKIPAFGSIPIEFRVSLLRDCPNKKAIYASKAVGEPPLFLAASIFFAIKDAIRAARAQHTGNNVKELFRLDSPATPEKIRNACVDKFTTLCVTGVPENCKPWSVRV
T1 sequence (P47989 whole entry, species assumed): as above

In the case of `COC(=O)c1cc(C(=O)O)c[nH]1` [2-metyl ester-1H-pyrrole-4-carboxilyc acid], the “IC50 xanthine oxidase inhibition” value at xanthine oxidase [1] (Xanthine as the substrate) was 48.86 µg/mL (≈ 289 µM).
As for `CC1=CCC2C(C1)C2(C)C` (stereo not shown) [3-Carene, 3-carene], the IC50 (commonly the point on the concentration scale where inhibition reaches its midpoint) in assay [2] (Hypoxanthine as the substrate) is 810 µM. The “activity against xanthine oxidase (in words)” value in assay [2] (Xanthine as the substrate) is on record as “did not display activity”.
For `Oc1ncnc2[nH]ncc12` [Allopurinol, reference compound], the “Inhibition type against xanthine oxidase” value on xanthine oxidase [3] is “competitive-type inhibition”. Moreover, the “Inhibition Type” value at xanthine oxidase [4] (Hypoxanthine as the substrate) and on xanthine oxidase [4] (Xanthine as the substrate) was “Competitive” throughout. Moreover, the Vmax at xanthine oxidase [4] (Hypoxanthine substrate, inhibitor 0.313 μg/mL) was found to be 0.00025; at xanthine oxidase [4] (Hypoxanthine substrate, inhibitor 0.625 μg/mL), 0.00024; on xanthine oxidase [4] (Hypoxanthine substrate, inhibitor 1.250 μg/mL) it was 0.00024; on xanthine oxidase [4] (Hypoxanthine substrate, inhibitor 2.500 μg/mL), 0.00024; at xanthine oxidase [4] (Xanthine substrate, inhibitor 0.313 μg/mL), 0.00026; on xanthine oxidase [4] (Xanthine substrate, inhibitor 0.625 μg/mL), 0.00026. Besides, the Vmax on xanthine oxidase [4] (Xanthine substrate, inhibitor 1.250 μg/mL) is given as 0.00025; at xanthine oxidase [4] (Xanthine substrate, inhibitor 2.500 μg/mL), 0.00026. For the same compound, the “Inhibition type on xanthine oxidase” value on xanthine oxidase [4] is on record as “competitive”.
For `C=C(C)[C@H]1CC=C(C)CC1` [Limonene, limonene], the “Inhibition Type” value on xanthine oxidase [4] (Hypoxanthine as the substrate) and at xanthine oxidase [4] (Xanthine as the substrate) was “Mixed” throughout. For the same compound, the Vmax is given as 0.00027 on xanthine oxidase [4] (Hypoxanthine substrate, inhibitor 40 μg/mL); 0.00025 on xanthine oxidase [4] (Hypoxanthine substrate, inhibitor 50 μg/mL); 0.00024 on xanthine oxidase [4] (Hypoxanthine substrate, inhibitor 100 μg/mL); 0.00023 at xanthine oxidase [4] (Hypoxanthine substrate, inhibitor 200 μg/mL); 0.00029 at xanthine oxidase [4] (Xanthine substrate, inhibitor 40 μg/mL); 0.00026 at xanthine oxidase [4] (Xanthine substrate, inhibitor 50 μg/mL). In addition, the Vmax turned out to be 0.00022 at xanthine oxidase [4] (Xanthine substrate, inhibitor 100 μg/mL) and 0.0002 at xanthine oxidase [4] (Xanthine substrate, inhibitor 200 μg/mL). On xanthine oxidase [4], the “Inhibition type on xanthine oxidase” value is “mixed-type inhibitor”. The “IC50 against xanthine oxidase” value in assay [2] (Hypoxanthine as the substrate) was found to be 37.69 ± 2.52 µg/mL (≈ 277 µM); in assay [2] (Xanthine as the substrate), 48.04 ± 0.78 µg/mL (≈ 353 µM). Also, the IC50 was 280 µM in assay [2] (Hypoxanthine as the substrate) and 350 µM in assay [2] (Xanthine as the substrate).
Regarding `O=c1cc(-c2ccc(O)cc2)oc2cc(O)cc(O)c12` [apigenin], the IC50 on xanthine oxidase [1] (setting [5]) was 130 µM.
On to `O=P(O)(O)O[C@H]1[C@H](OP(=O)(O)O)[C@@H](OP(=O)(O)O)[C@H](OP(=O)(O)O)[C@@H](OP(=O)(O)O)[C@H]1OP(=O)(O)O` [phytic acid], for which the IC50 on xanthine oxidase [1] (Xanthine as the substrate, read-out: IC50 (inhibition of the formation of uric acid)) was around 30000 µM.
Consider `O=c1c(O)c(-c2ccc(O)c(O)c2)oc2cc(O)cc(O)c12` [quercetin], for which the “Inhibition type against xanthine oxidase” value on xanthine oxidase [3] is “mixed type”.
`C[C@@H]1O[C@@H](OC[C@H]2O[C@@H](Oc3c(-c4ccc(O)c(O)c4)oc4cc(O)cc(O)c4c3=O)[C@H](O)[C@@H](O)[C@@H]2O)[C@H](O)[C@H](O)[C@H]1O` [rutin]: the IC50 at xanthine oxidase [1] (setting [5]) was 99.9 µM.
